The experiment in a line: Binding to delta opioid receptor by using [3H]DPDPE as radioligand in guinea pig brain minus cerebellum.

We go through 2 compounds from BindingDB's records for doi:10.1016/S0960-894X(01)80277-8 (1994).

One may read the IC50 as the point on the concentration scale where inhibition reaches its midpoint.

The compound `CC(=O)c1ccc2c3c1O[C@H]1[C@@H](O)C=C[C@H]4[C@@H](C2)N(C)CC[C@@]341` [1-[14-hydroxy-4-methyl-(1S,5R,13R,14S,17R)-12-oxa-4-azapentacyclo[9.6.1.01,13.05,17.07,18]octadeca-7(18),8,10,15-tetraen-10-yl]-1-ethanone] gave an IC50 of 7.9 µM. As to `CN1CC[C@]23c4c5ccc(-c6ccoc6)c4O[C@H]2[C@@H](O)C=C[C@H]3[C@H]1C5` [10-(3-furyl)-4-methyl-(1S,5R,13R,14S,17R)-12-oxa-4-azapentacyclo[9.6.1.01,13.05,17.07,18]octadeca-7(18),8,10,15-tetraen-14-ol], the half-inhibitory concentration (IC50) turned out to be 7.4 µM.
